Measurements from patent US12291529B2, “Heterocyclic GLP-1 agonists” (Gasherbrum Bio, Inc., priority 2023, dated 2025).

molecular target: GLP-1 Receptor (Homo sapiens, UniProt P43220); assay: GLP-1R agonist cAMP stimulation assay (HEK293/GLP1R/CRE-LUC cells, Cisbio cAMP dynamic 2 kit); type: cell-based; settings: Table 3, HEK293/GLP1R/CRE-LUC cells, 30 min
Procedure: Activation of GLP-1 receptor is known to stimulate cyclic AMP (cAMP) production in cells which indicates primary coupling to the G as subunit of the G protein heterotrimeric complex.
To optimize functional activity directed toward G as coupling, a HEK293/CRE-Luc cell line developed by HDB stably expressing the GLP-1 Receptor was used. 200× concentration of compound working solutions were prepared (Agilent Technologies Bravo) with ½ log serial dilution in 384-well Echo LDV plate (Labcyte, CatOLP-0200). 50 nL/well 200× concentration of compound working solutions were moved to 384-well white low volume plate (Greiner, Cat4784075) using Labcyte ECH0550.1×10^5 cells/mL HEK293/GLP1R/CRE-LUC (HD Biosciences) cell suspensions prepared with assay buffer (DPBS containing 0.5 mM IBMX (Sigma, Cat15879) and 0.10 BSA (GENVIEW, Cat4FA016-100g)), 10 uL cell suspensions were added to each well of previous generated assay plate which already contains 50 n^1 compound at 200 xconcentration using ThermioFisher Multidrop Combi (1000 cells/well). Seal the plate and incubate at 37 with […] for 30 m.
After incubation the cAMP assay signal was generated using cAMP dynamic 2 Kit (Cisbio). 5 μL cAMP-d2 working solution was added to each well, followed with 5 L Anti-cAMP antibody-cryptate working solution added to each well using ThermoFisher Multidrop Combi. Incubate at room temperature for 1 hour protected from light. Read the fluorescence at 665 and 615 nm with Reader PerkinElmer EnVision. % oActivity=100%×(mean RLU of test sample−mean RLU of vehicle control)/(mean RLU of MAX control−mean RLU of vehicle control)

Sequence of GLP-1 Receptor (P43220 24-463, species assumed): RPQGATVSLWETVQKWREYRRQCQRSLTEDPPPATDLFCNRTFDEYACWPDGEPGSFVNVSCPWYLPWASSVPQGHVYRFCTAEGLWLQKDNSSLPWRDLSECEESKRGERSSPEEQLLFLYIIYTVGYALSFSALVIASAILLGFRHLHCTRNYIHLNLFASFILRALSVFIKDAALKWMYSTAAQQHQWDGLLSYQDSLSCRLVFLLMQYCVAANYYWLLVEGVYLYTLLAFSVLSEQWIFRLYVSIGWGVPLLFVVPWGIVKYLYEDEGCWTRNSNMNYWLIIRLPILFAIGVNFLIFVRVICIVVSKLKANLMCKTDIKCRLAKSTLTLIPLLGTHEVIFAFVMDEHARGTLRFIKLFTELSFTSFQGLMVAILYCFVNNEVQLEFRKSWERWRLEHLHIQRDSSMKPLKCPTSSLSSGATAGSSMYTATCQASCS

Going from `CCS(=O)(=NC)c1ccc(-n2ccn(-c3c4c(nn3-c3cc(C)c(F)c(C)c3)CCN(C(=O)c3cc5cc(C6CCOCC6)ccc5n3CC3CCCO3)[C@H]4C)c2=O)cc1` (some centres unmarked) [Compound 163] to `CN=S(C)(=O)c1ccc(-n2ccn(-c3c4c(nn3-c3cc(C)c(F)c(C)c3)CCN(C(=O)c3cc5cc(C6CCOCC6)ccc5n3[C@@]3(c5noc(=O)[nH]5)C[C@@H]3C)[C@H]4C)c2=O)cc1` (single isomer, unassigned) [Compound 112], the EC50 falls from 20 nM to 0.057 nM (350-fold).

First: CN=S(=O)(c1ccc(-n2ccn(-c3c4c(nn3-c3cc(C)c(F)c(C)c3)CCN(C(=O)c3cc5cc([C@H]6CCOC(C)(C)C6)ccc5n3[C@@]3(c5noc(=O)[nH]5)C[C@@H]3C)[C@H]4C)c2=O)c(F)c1C(C)C)C1CC1 (single isomer, unassigned) [Compound 219]
Second: CN=S(=O)(c1ccc(-n2ccn(-c3c4c(nn3-c3cc(C)c(F)c(C)c3)CCN(C(=O)c3cc5cc([C@H]6CCOC(C)(C)C6)ccc5n3[C@@]3(c5noc(=O)[nH]5)C[C@@H]3C)[C@H]4C)c2=O)c(F)c1C)C1CC1 (single isomer, unassigned) [Compound 196]
The EC50 of the first is 4.9-fold higher: 0.193 nM for the first, 0.039 nM for the second.

First: Cc1cc(-n2nc3c(c2-n2ccn(-c4ccc(S(C)(=N)=O)cc4)c2=O)[C@H](C)N(C(=O)c2cc4cc(C5CCOCC5)ccc4n2-c2cccc(S(=O)(=O)Nc4ncccn4)c2)CC3)cc(C)c1F (some centres unmarked) [Compound 119]
Second: Cc1cc(-n2nc3c(c2-n2ccn(-c4ccc(S(=N)(=O)C5CC5)cc4)c2=O)[C@H](C)N(C(=O)c2cc4cc(C5CCOCC5)ccc4n2[C@@]2(c4noc(=O)[nH]4)C[C@@H]2C)CC3)cc(C)c1F (single isomer, unassigned) [Compound 134]
The EC50 of the first is 200-fold higher: 1 nM for the first, 0.0051 nM for the second.

First: CCS(=N)(=O)c1ccc(-n2ccn(-c3c4c(nn3-c3ccc(F)c(C5CC5)c3)CCN(C(=O)c3cc5cc(C6CCOCC6)ccc5n3[C@@]3(c5noc(=O)[nH]5)C[C@@H]3C)[C@H]4C)c2=O)c(F)c1 (single isomer, unassigned) [Compound 167]
Second: CCS(=N)(=O)c1ccc(-n2ccn(-c3c4c(nn3-c3cc(C)c(F)c(C)c3)CCN(C(=O)c3cc5cc(C6CCOCC6)ccc5n3[C@@]3(c5noc(=O)[nH]5)C[C@@H]3C)[C@H]4C)c2=O)c(Cl)c1 (single isomer, unassigned) [Compound 136]
The EC50 of the first is 2.6-fold higher: 0.12 nM for the first, 0.047 nM for the second.

`Cc1cc(-n2nc3c(c2-n2ccn(-c4ccc5c(c4F)CCN=S5(=O)C4CC4)c2=O)[C@H](C)N(C(=O)c2cc4cc([C@H]5CCOC(C)(C)C5)ccc4n2[C@@]2(c4noc(=O)[nH]4)C[C@@H]2C)CC3)cc(C)c1F` (single isomer, unassigned) [Compound 198] and `Cc1cc(-n2nc3c(c2-n2ccn(-c4ccc5c(c4F)CN=S5(=O)C4CC4)c2=O)[C@H](C)N(C(=O)c2cc4cc([C@H]5CCOC(C)(C)C5)ccc4n2[C@@]2(c4noc(=O)[nH]4)C[C@@H]2C)CC3)cc(C)c1F` (single isomer, unassigned) [Compound 192] are within 1.5-fold of each other in EC50: 0.023 nM for the first, 0.02 nM for the second.

Going from `Cc1cc(-n2ccn(-c3c4c(nn3-c3cc(C)c(F)c(C)c3)CCN(C(=O)c3cc5cc([C@H]6CCOC(C)(C)C6)ccc5n3[C@@]3(c5noc(=O)[nH]5)C[C@@H]3C)[C@H]4C)c2=O)c(F)cc1S(=N)(=O)C1CC1` (single isomer, unassigned) [Compound 190] to `Cc1cc(-n2nc3c(c2-n2ccn(-c4cc5c(cc4F)S(C)(=O)=NC5)c2=O)[C@H](C)N(C(=O)c2cc4cc([C@H]5CCOC(C)(C)C5)ccc4n2[C@@]2(c4noc(=O)[nH]4)C[C@@H]2C)CC3)cc(C)c1F` (single isomer, unassigned) [Compound 200], the EC50 falls from 0.026 nM to 0.01 nM (2.6-fold).

Compared with `Cc1cc(-n2nc3c(c2-n2ccn(-c4ccc5c(c4F)CN=S5(C)=O)c2=O)[C@H](C)N(C(=O)c2cc4cc([C@H]5CCOC(C)(C)C5)ccc4n2[C@@]2(c4noc(=O)[nH]4)C[C@@H]2C)CC3)cc(C)c1F` (single isomer, unassigned) [Compound 188], `Cc1cc(-n2nc3c(c2-n2ccn(-c4ccc5c(c4F)CCN=S5(C)=O)c2=O)[C@H](C)N(C(=O)c2cc4cc([C@H]5CCOC(C)(C)C5)ccc4n2[C@@]2(c4noc(=O)[nH]4)C[C@@H]2C)CC3)cc(C)c1F` (single isomer, unassigned) [Compound 186] is 3.6-fold lower in EC50: 0.017 nM for the first, 0.0047 nM for the second. The second is the more potent here.

First: CN=S1(=O)CCC(Oc2ccc(-n3ccn(-c4c5c(nn4-c4cc(C)c(F)c(C)c4)CCN(C(=O)c4cc6cc(C7CCOCC7)ccc6n4[C@@]4(c6noc(=O)[nH]6)C[C@@H]4C)[C@H]5C)c3=O)cc2C(F)F)CC1 (single isomer, unassigned) [Compound 234]
Second: Cc1cc(-n2nc3c(c2-n2ccn(-c4ccc(OC5CCS(=N)(=O)CC5)cc4)c2=O)[C@H](C)N(C(=O)c2cc4cc(C5CCOCC5)ccc4n2[C@@]2(c4noc(=O)[nH]4)C[C@@H]2C)CC3)cc(C)c1F (stereo partly drawn) [Compound 226, 3-((1S,2S)-1-(2-((S)-2-(4-fluoro-3,5-dimethylphenyl)-3-(3-(4-((1-imino-1-oxidohexahydro-1λ^6-thiopyran-4-yl)oxy)phenyl)-2-oxo-2,3-dihydro-1H-imidazol-1-yl)-4-methyl-4,5,6,7-tetrahydro-2H-pyrazolo[4,3-c]pyridine-5-carbonyl)-5-(tetrahydro-2H-pyran-4-yl)-1H-indol-1-yl)-2-methylcyclopropyl)-1,2,4-oxadiazol-5(4H)-one]
The EC50 of the first is 2.3-fold higher: 0.058 nM for the first, 0.025 nM for the second.

First: Cc1cc(-n2nc3c(c2-n2ccn(-c4ccc(S(C)(=O)=NC#N)cc4)c2=O)[C@H](C)N(C(=O)c2cc4cc(C5CCOCC5)ccc4n2[C@@]2(c4noc(=O)[nH]4)C[C@@H]2C)CC3)cc(C)c1F (single isomer, unassigned) [Compound 122]
Second: Cc1cc(-n2ccn(-c3c4c(nn3-c3cc(C)c(F)c(C)c3)CCN(C(=O)c3cc5cc(C6CCOCC6)ccc5n3[C@@]3(c5noc(=O)[nH]5)C[C@@H]3C)[C@H]4C)c2=O)ccc1S(C)(=N)=O (some centres unmarked) [Compound 124]
The EC50 of the first is 4.6-fold higher: 0.046 nM for the first, 0.01 nM for the second. The second is the more potent here.

`Cc1cc(-n2nc3c(c2-n2ccn(-c4ccc5c(c4Cl)CN=S5(C)=O)c2=O)[C@H](C)N(C(=O)c2cc4cc([C@H]5CCOC(C)(C)C5)ccc4n2[C@@]2(c4noc(=O)[nH]4)C[C@@H]2C)CC3)cc(C)c1F` (single isomer, unassigned) [Compound 201] and `Cc1cc(-n2nc3c(c2-n2ccn(-c4ccc5c(c4F)CN=S5(C)=O)c2=O)[C@H](C)N(C(=O)c2cc4cc([C@H]5CCOC(C)(C)C5)ccc4n2[C@@]2(c4noc(=O)[nH]4)C[C@@H]2C)CC3)cc(C)c1F` (single isomer, unassigned) [Compound 187] are within 1.5-fold of each other in EC50: 0.011 nM for the first, 0.01 nM for the second.

First: CN=S(=O)(c1ccc(-n2ccn(-c3c4c(nn3-c3cc(C)c(F)c(C)c3)CCN(C(=O)c3cc5cc(C6CCOCC6)ccc5n3[C@@]3(c5noc(=O)[nH]5)C[C@@H]3C)[C@H]4C)c2=O)c(F)c1)C1CC1 (single isomer, unassigned) [Compound 222]
Second: Cc1cc(-n2nc3c(c2-n2ccn(-c4ccc5c(c4)CS(C)(=O)=N5)c2=O)[C@H](C)N(C(=O)c2cc4cc(C5CCOCC5)ccc4n2[C@@]2(c4noc(=O)[nH]4)C[C@@H]2C)CC3)cc(C)c1F (some centres unmarked) [Compound 225]
The EC50 of the first is 3-fold higher: 0.084 nM for the first, 0.028 nM for the second. The second is the more potent here.

First: CC1=Cc2c(ccc(-n3ccn(-c4c5c(nn4-c4cc(C)c(F)c(C)c4)CCN(C(=O)c4cc6cc([C@H]7CCOC(C)(C)C7)ccc6n4[C@@]4(c6noc(=O)[nH]6)C[C@@H]4C)[C@H]5C)c3=O)c2F)S(=O)(C2CC2)=N1 (single isomer, unassigned) [Compound 210]
Second: Cc1cc(-n2nc3c(c2-n2ccn(-c4ccc5c(c4F)CN=S5(=O)C4CC4)c2=O)[C@H](C)N(C(=O)c2cc4cc([C@H]5CCOC(C)(C)C5)ccc4n2[C@@]2(c4noc(=O)[nH]4)C[C@@H]2C)CC3)cc(C)c1F (single isomer, unassigned) [Compound 191]
The EC50 of the first is 7-fold higher: 0.067 nM for the first, 0.0096 nM for the second.

Compared with `Cc1cc(-n2nc3c(c2-n2ccn(-c4ccc(S(C)(=N)=O)cc4)c2=O)[C@H](C)N(C(=O)c2cc4cc(N5CCOCC5)ccc4n2C2(c4noc(=O)[nH]4)CC2)CC3)cc(C)c1F` (some centres unmarked) [Compound 106], `Cc1cc(-n2nc3c(c2-n2ccn(-c4ccc5c(c4)CCS(C)(=O)=N5)c2=O)[C@H](C)N(C(=O)c2cc4cc([C@H]5CCOC(C)(C)C5)ccc4n2[C@@]2(c4noc(=O)[nH]4)C[C@@H]2C)CC3)cc(C)c1F` (single isomer, unassigned) [Compound 229] is 16-fold lower in EC50: 0.67 nM for the first, 0.042 nM for the second.

`Cc1cc(-n2nc3c(c2-n2ccn(-c4ccc5c(c4)C=CS(C)(=O)=N5)c2=O)[C@H](C)N(C(=O)c2cc4cc([C@H]5CCOC(C)(C)C5)ccc4n2[C@@]2(c4noc(=O)[nH]4)C[C@@H]2C)CC3)cc(C)c1F` (single isomer, unassigned) [Compound 231] and `Cc1cc(-n2nc3c(c2-n2ccn(-c4cc5c(cc4F)S(C)(=O)=NC5)c2=O)[C@H](C)N(C(=O)c2cc4cc([C@H]5CCOC(C)(C)C5)ccc4n2[C@@]2(c4noc(=O)[nH]4)C[C@@H]2C)CC3)cc(C)c1F` (single isomer, unassigned) [Compound 199] are within 1.5-fold of each other in EC50: 0.014 nM for the first, 0.01 nM for the second.

`Cc1nnc(Cn2c(C(=O)N3CCc4nn(-c5cc(C)c(F)c(C)c5)c(-n5ccn(-c6ccc(S7(=O)=NCCC7)cc6)c5=O)c4[C@@H]3C)cc3cc(C4CCOCC4)ncc32)o1` (single isomer, unassigned) [Compound 159] was tested, and the EC50 was 5.9 nM.
